Activity calls are given as the source filed them. No cut-off for these calls is given here.
System: HL-60
Assay: Antileukemic activity against human leukemia HL60 cells at 20 uM
Type: functional, cell-based

Compound | Activity
CCCCCCCCCCCCC/C=C/[C@@H](O)[C@@H]1COC(=O)N1C(=O)CCCCCCCCCCCCCCC | inactive
CCCCCCCCCCCCC/C=C/[C@@H](O)[C@@H]1COC(=O)N1C(=O)c1ccccc1 | Active
CCCCCCCCCCCCC/C=C/[C@@H](O)[C@@H]1COC(=O)N1C(=O)CC | Active

From ChEMBL document CHEMBL1146141, “Synthesis of constrained ceramide analogs and their potent antileukemic activities” (Bioorg Med Chem Lett, 2006)
